Source: ChEMBL document CHEMBL3779863, “Ionic liquid-promoted one-pot synthesis of thiazoleimidazo[2,1-b][1,3,4]thiadiazole hybrids and their antitubercular activity” (Medchemcomm, 2016)
Converted amounts (≈) assume the structure as drawn.

Test system: Mycobacterium tuberculosis
Assay: Antimycobacterial activity against extensively drug resistant Mycobacterium tuberculosis H37Rv ATCC 27294 after 28 days by agar dilution method
Type: functional
Details: H37Rv ATCC 27294, 672 h

Compound | MIC [µM]
Cc1nn2c(/C=N/Nc3nc(-c4ccc(F)cc4)cs3)c(-c3ccc(Cl)cc3)nc2s1 | 53.9 (≈ 25.3 µg/mL)
Cc1ccc(-c2nc3sc(C)nn3c2/C=N/Nc2nc(-c3ccc(Cl)cc3)cs2)cc1 | 53.9 (≈ 25 µg/mL)
Cc1ccc(-c2csc(N/N=C/c3c(-c4ccc(C)cc4)nc4sc(C)nn34)n2)cc1 | 56.3 (≈ 25 µg/mL)
COc1ccc(-c2csc(N/N=C/c3c(-c4ccc(OC)cc4)nc4sc(C(F)(F)F)nn34)n2)cc1 | 94.3 (≈ 50 µg/mL)
COc1ccc(-c2csc(N/N=C/c3c(-c4ccc(C)cc4)nc4sc(C)nn34)n2)cc1 | 109 (≈ 50 µg/mL)
Fc1ccc(-c2csc(N/N=C/c3c(-c4ccc(Cl)cc4)nc4sc(C(F)(F)F)nn34)n2)cc1 | 12 (≈ 6.26 µg/mL)
Cc1ccc(-c2csc(N/N=C/c3c(-c4ccc(Cl)cc4)nc4sc(C)nn34)n2)cc1 | 108 (≈ 50.1 µg/mL)
COc1ccc(-c2nc3sc(C(F)(F)F)nn3c2/C=N/Nc2nc(-c3ccc(C)cc3)cs2)cc1 | 24.1 (≈ 12.4 µg/mL)
COc1ccc(-c2nc3sc(C(F)(F)F)nn3c2/C=N/Nc2nc(-c3ccc(F)cc3)cs2)cc1 | 24.1 (≈ 12.5 µg/mL)
Cc1ccc(-c2nc3sc(C)nn3c2/C=N/Nc2nc(-c3ccc(F)cc3)cs2)cc1 | 13.9 (≈ 6.25 µg/mL)
COc1ccc(-c2nc3sc(C)nn3c2/C=N/Nc2nc(-c3ccc([N+](=O)[O-])cc3)cs2)cc1 | 12.7 (≈ 6.25 µg/mL)
COc1ccc(-c2nc3sc(C)nn3c2/C=N/Nc2nc(-c3ccc(C)cc3)cs2)cc1 | 109 (≈ 50 µg/mL)
Cc1ccc(-c2nc3sc(C)nn3c2/C=N/Nc2nc(-c3ccc([N+](=O)[O-])cc3)cs2)cc1 | 26.3 (≈ 12.5 µg/mL)
O=[N+]([O-])c1ccc(-c2csc(N/N=C/c3c(-c4ccc(Cl)cc4)nc4sc(C(F)(F)F)nn34)n2)cc1 | 91.1 (≈ 50.1 µg/mL)
COc1ccc(-c2csc(N/N=C/c3c(-c4ccc(OC)cc4)nc4sc(C)nn34)n2)cc1 | 105 (≈ 50 µg/mL)
COc1ccc(-c2nc3sc(C)nn3c2/C=N/Nc2nc(-c3ccc(F)cc3)cs2)cc1 | 108 (≈ 50 µg/mL)
COc1ccc(-c2csc(N/N=C/c3c(-c4ccc(Cl)cc4)nc4sc(C)nn34)n2)cc1 | 52.1 (≈ 25 µg/mL)
FC(F)(F)c1nn2c(/C=N/Nc3nc(-c4ccc(Cl)cc4)cs3)c(-c3ccc(Cl)cc3)nc2s1 | 92.9 (≈ 50.1 µg/mL)
COc1ccc(-c2nc3sc(C(F)(F)F)nn3c2/C=N/Nc2nc(-c3ccc(Cl)cc3)cs2)cc1 | 93.6 (≈ 50.1 µg/mL)
Cc1nn2c(/C=N/Nc3nc(-c4ccc(Cl)cc4)cs3)c(-c3ccc(Cl)cc3)nc2s1 | 103 (≈ 50 µg/mL)
COc1ccc(-c2csc(N/N=C/c3c(-c4ccc(Cl)cc4)nc4sc(C(F)(F)F)nn34)n2)cc1 | 11.7 (≈ 6.26 µg/mL)
Cc1ccc(-c2csc(N/N=C/c3c(-c4ccc(Cl)cc4)nc4sc(C(F)(F)F)nn34)n2)cc1 | 6.03 (≈ 3.13 µg/mL)
COc1ccc(-c2nc3sc(C)nn3c2/C=N/Nc2nc(-c3ccc(Cl)cc3)cs2)cc1 | 26 (≈ 12.5 µg/mL)
O=C(O)c1cn(C2CC2)c2cc(N3CCNCC3)c(F)cc2c1=O [CIPROFLOXACIN] | 9.44 (≈ 3.13 µg/mL)
CC[C@@H](CO)NCCN[C@@H](CC)CO [ETHAMBUTOL] | 15.3 (≈ 3.13 µg/mL)
NNC(=O)c1ccncc1 [ISONIAZID] | 0.729 (≈ 0.1 µg/mL)
